Results from patent publication US10544140B2, “Pharmaceutical composition containing, as active ingredient, 7-azaindolin-2-one derivative or pharmaceutically acceptable salt thereof” (LG CHEM, LTD., priority 2015, dated 2020).

How the values were obtained:
[1] = test system: MCF-7 (human breast cancer cell line); experiment: Cytotoxicity test by MTT assay, MCF-7; type: cell-based; conditions: Homo sapiens, MCF7; MCF-7, 30 μM, 48 h; read-out: Cell viability (% inhibition)
Method: (§1) A cytotoxicity test was measured by MTT assay. Each cell line was cultured in a 96-well plate at a density of 1×10^4 cells/well. […] MTT (3-(4,5-dimethylthiazol-2-yl)-2,5-diphenyltetrazolium bromide) solution (5 mg/mL) was added to each well and reacted for 4 hours in an incubator. […] After reacting in an incubator for 30 minutes, the formation of formazan was quantified using a microplate reader at an absorbance of 540 nm. […] At this time, sunitinib was used as a control group. […] The human cancer cell lines used herein are MCF-7 (breast cancer), MDA-MB-231 (breast cancer), HT-29 (colon cancer), DU145 (prostate cancer), U937 (myeloid leukemia), A549 (lung cancer), PANC-1 (pancreatic cancer) and MIA PaCa-2 (pancreatic cancer).

[2] = test system: PANC-1 (human pancreatic cancer cell line); experiment: Cytotoxicity test by MTT assay, PANC-1; type: cell-based; conditions: Homo sapiens; PANC-1, 30 μM, 48 h; read-out: Cell viability (% inhibition)
Method: as §1

Compound	cytotoxicity at 30 µM [1] [%]	cytotoxicity at 30 µM [2] [%]
CCC(/C=C1\C(=O)Nc2nc(C)c(O)c(C)c21)CC [Compound I-02, (Z)-3-(2-Ethylbutylidene)-5-hydroxy-4,6-dimethyl-1H-pyrrolo[2,3-b]pyridin-2(3H)-one]	30.5	44.9
CC(C)=C/C=C1\C(=O)Nc2nc(C)c(O)c(C)c21 [Compound I-03, (Z)-5-Hydroxy-4,6-dimethyl-3-(3-methylbut-2-enylidene)-1H-pyrrolo[2,3-b]pyridin-2(3H)-one]	6.6	37.5
COc1cc(/C=C/C=C2\C(=O)Nc3nc(C)c(O)c(C)c32)ccc1O [Compound I-04, (Z)-5-Hydroxy-3-((E)-3-(4-hydroxy-3-methoxyphenyl)allylidene)-4,6-dimethyl-1H-pyrrolo[2,3-b]pyridin-2(3H)-one]	6.9	24.4
Cc1nc2c(c(C)c1O)/C(=C/C1CCCCC1)C(=O)N2 [Compound I-05, (Z)-3-(Cyclohexylmethylene)-5-hydroxy-4,6-dimethyl-1H-pyrrolo[2,3-b]pyridin-2(3H)-one]	10	49
Cc1ccc(/C=C2\C(=O)Nc3nc(C)c(O)c(C)c32)cc1 [Compound I-06, (Z)-5-Hydroxy-4,6-dimethyl-3-(4-methylbenzylidene)-1H-pyrrolo[2,3-b]pyridin-2(3H)-one]	32.3	29.1
Cc1nc2c(c(C)c1O)/C(=C/c1ccccc1[N+](=O)[O-])C(=O)N2 [Compound I-07, (Z)-5-Hydroxy-4,6-dimethyl-3-(2-nitrobenzylidene)-1H-pyrrolo[2,3-b]pyridin-2(3H)-one]	23.9	27.8
Cc1nc2c(c(C)c1O)/C(=C/c1ccc([N+](=O)[O-])cc1)C(=O)N2 [Compound I-08, (Z)-5-Hydroxy-4,6-dimethyl-3-(4-nitrobenzylidene)-1H-pyrrolo[2,3-b]pyridin-2(3H)-one]	16.3	32.5
Cc1nc2c(c(C)c1O)/C(=C/c1ccc(F)cc1)C(=O)N2 [Compound I-09, (Z)-3-(4-Fluorobenzylidene)-5-hydroxy-4,6-dimethyl-1H-pyrrolo[2,3-b]pyridin-2(3H)-one]	48.3	51.8
Cc1nc2c(c(C)c1O)/C(=C/c1ccc(Cl)cc1)C(=O)N2 [Compound I-10, (Z)-3-(4-Chlorobenzylidene)-5-hydroxy-4,6-dimethyl-1H-pyrrolo[2,3-b]pyridin-2(3H)-one]	51.7	44.9
Cc1nc2c(c(C)c1O)/C(=C/c1ccccc1O)C(=O)N2 [Compound I-11, (Z)-5-Hydroxy-3-(2-hydroxybenzylidene)-4,6-dimethyl-1H-pyrrolo[2,3-b]pyridin-2(3H)-one]	29.2	42
COc1ccccc1/C=C1\C(=O)Nc2nc(C)c(O)c(C)c21 [Compound I-12, (Z)-5-hydroxy-3-(2-methoxybenzylidene)-4,6-dimethyl-1H-pyrrolo[2,3-b]pyridin-2(3H)-one]	30.7	10.2
COc1cccc(/C=C2\C(=O)Nc3nc(C)c(O)c(C)c32)c1 [Compound I-13, (Z)-5-Hydroxy-3-(3-methoxybenzylidene)-4,6-dimethyl-1H-pyrrolo[2,3-b]pyridin-2(3H)-one]	29.6	46.4
